Results: US6156801A, “2-phenoxyaniline derivatives” (Taisho Pharmaceutical Co., Ltd., priority 1997, dated 2000)
Where a name gives a salt, the structure may show the parent alone.

molecular target: T1, Na^+ /Ca^2+ exchange system (Canis lupus familiaris, UniProt P23685); test: Inhibitory action on Na+/Ca2+ exchange system using myosarcolemmal vesicles (45Ca uptake); type: biochemical; details: sarcolemmal vesicles from dog ventricular muscles; Na+-loaded; 20 μM [45Ca]-calcium chloride, pH 7.4, 10 seconds uptake
T1 construct: Sarcolemmal vesicles which were prepared from the removed dog ventricular muscles; from tissue; host or cells: dog ventricular muscle, sarcolemmal vesicles
Method: Inhibitors Action on a Na^+ /Ca^2+ Exchange System using Myosarcolemmal Vesicles Sarcolemmal vesicles which were prepared from the removed dog ventricular muscles by referring to the method described in the literature (L. R. Jones, Methods, Enzymol., 1988, 157, pp. 85) were used. A Na^+ /Ca^2+ exchange activity using the sarcolemmal vesicles was measured by referring to the method described in the literature (K. D. Philipson, et al., J. Biol. Chem., 1980, 255, pp. 6880). First, the sarcolemmal vesicles were suspended in a sodium-containing solution [160 mM sodium chloride, 20 mM […] (pH 7.4)] to make up to a protein concentration of 1.5 mg/ml, and allowed to stand for an hour to load Na^+ in the sarcolemmal vesicles. To 2.5 μl of the sarcolemmal vesicles was added 125 μl of a [^45 Ca]-calcium chloride solution [20 μM [^45 Ca]-calcium chloride, 160 mM potassium chloride and 20 mM Mops-Tris (pH 7.4)], and after 10 seconds, 900 μl of an ice-cooled lanthanum chloride solution [10 mM lanthanum chloride, 160 mM potassium chloride and 20 mM Mops-Tris (pH 7.4)] was added. The sarcolemmal vesicles were recovered on a nitrocellulose filter by suction filtration and washed three times with 900 μl of a lanthanum chloride solution. The concentration of Ca^2+ uptake in the sarcolemmal vesicles was determined by measuring a ^45 Ca radioactivity by a scintillator. In addition, a Na^+ /Ca^2+ exchange activity-independent Ca^2+ uptake in the sarcolemmal vesicles was determined by carrying out the same procedure using a potassium-containing solution [160 mM potassium chloride, 20 mM Tris-hydrochloric acid (pH 7.4)] instead of the sodium-containing solution. The test compound was used as a dimethyl sulfoxide solution thereof, and its inhibitory effect was evaluated in comparison with the vehicle-treatedgroup. The IC50 value was determined from a dose inhibition curve of the test compound by using the minimum square method.

Row | SMILES | IC50 [µM]
1 | NC(=O)COc1ccc(Oc2ccc(OCc3ccccc3)cc2)c(N)c1 [Example 19, 3-Amino-4-[4-(benzyloxy)phenoxy]phenoxy-acetamide hydrochloride] | 14
2 | Nc1cccc(N)c1Oc1ccc(OCc2ccccc2)cc1 [Example 14, 2-[4-(Benzyloxy)phenoxy]-1,3-phenylenediamine dihydrochloride] | 8.2

Stronger by IC50, values ahead:

Row | IC50 [µM] | SMILES
3 | 2.8 | COC(=O)COc1ccc(Oc2ccc(OCc3ccccc3)cc2)c(N)c1 [Example 20, Methyl 3-amino-4-[4-(benzyloxy)-phenoxy]phenoxyacetate hydrochloride]
4 | 2.5 | CCOc1ccc(Oc2ccc(OCc3ccccc3)cc2)c(N)c1 [Example 17, 2-[4-(Benzyloxy)phenoxy-5-ethoxyaniline hydrochloride]
5 | 1.1 | COc1ccc(Oc2ccc(OCc3ccccc3)cc2)c(N)c1 [Example 1, 2-[4-(Benzyloxy)phenoxy]-5-methoxyaniline hydrochloride]
